The subject of data set [1] is Respiratory syncytial virus. Put plainly: Antiviral activity against RSV long A with F1 protein K394R mutation in HEp2 cells. In kind it is functional, organism-based.
Data set [2] in a line: Cytotoxicity against human HEp2 cells. In kind it is cell-based, HEp-2.
Data set [3] is described as follows: Therapeutic index, ratio of CC50 for HEp2 to EC50 for RSV long A. The settings on record: human, HEp2 cells; read-out: Ratio CC50/EC50.

Bounds are passed on as bounds.

`O=c1n(Cc2nc3ccccc3n2CCCCO)c2cnccc2n1C1CC1` displayed a concentration for a half-maximal effect (EC50) in data set [1] of more than 20 µM.

Take `CC(C)CCn1c(Cn2c(=O)n(C(C)C)c3ccccc32)nc2ccc(C(=O)O)cc21`: the concentration giving a half-maximal response (EC50) in data set [1] is 238 µM. Also, half-maximal cytotoxicity in data set [2] (CC50) was put at 125 µM. Moreover, in data set [3], the selectivity ratio amounted to 0.525.

Consider `CC(C)CCn1c(Cn2c(=O)n(C(C)C)c3ccccc32)nc2ccc(CN)cc21`, for which the EC50 in data set [1] was 0.095 µM. In data set [2], this compound had a half-maximal cytotoxic concentration (CC50) of 28.1 µM. The selectivity ratio in data set [3] stood at 296.

In data set [1], `CNCc1ccc2nc(Cn3c(=O)n(C(C)C)c4ccccc43)n(CCC(C)C)c2c1` showed an EC50 of 187 µM. The CC50 in data set [2] turned out to be 4.81 µM. In data set [3], the selectivity ratio came to 0.026.

Compound `CC(C)CCn1c(Cn2c(=O)n(C(C)C)c3ccccc32)nc2ccc(CN(C)C)cc21` gave an EC50 in data set [1] of 182 µM. The CC50 in data set [2] turned out to be 26.7 µM. The selectivity ratio in data set [3] came out at 0.026.

In turn, `CC(C)CCn1c(Cn2c(=O)n(C(C)C)c3ccccc32)nc2ccc(CCN)cc21` showed a concentration for a half-maximal effect (EC50) in data set [1] of 7.11 µM. Besides, the CC50 in data set [2] is 57 µM. Further, in data set [3], the selectivity ratio was 8.02.

Compound `CC(C)CCn1c(Cn2c(=O)n(CC(=O)O)c3ccccc32)nc2cc(C(=N)N)ccc21` registered an EC50 in data set [1] of 0.031 µM. In data set [2], this compound came in with a CC50 of 173 µM. Further, in data set [3], the selectivity ratio was determined as 5570.

Consider `C=C(C)n1c(=O)n(Cc2nc3cc(/C(N)=N\O)ccc3n2CCC(C)C)c2ccccc21`, for which, in data set [1], the EC50 came to 0.005 µM. It took 3.47 µM to reach half-maximal cytotoxicity in data set [2] (CC50). In data set [3], the selectivity ratio was 694.

As for `CC(C)CCn1c(Cn2c(=O)n(C(C)C)c3ccccc32)nc2cc(CF)ccc21`, the EC50 in data set [1] worked out at 0.047 µM. Moreover, in data set [2], the CC50 was determined as 37.3 µM. The selectivity ratio in data set [3] was found to be 793.

Turning to `CC(C)CCn1c(Cn2c(=O)n(CC(=O)OC(C)(C)C)c3ccccc32)nc2cc(/C(N)=N\O)ccc21`, the EC50 in data set [1] came out at 0.016 µM. The compound also displayed a CC50 in data set [2] of 19.8 µM. Moreover, in data set [3], the selectivity ratio worked out at 1240.

In turn, `CC(C)CCn1c(Cn2c(=O)n(C(C)C)c3ccccc32)nc2cc(CO)ccc21` registered a 50% effective concentration (EC50) in data set [1] of 0.05 µM. Further, half-maximal cytotoxicity in data set [2] (CC50) was put at 31.6 µM. Moreover, the selectivity ratio in data set [3] turned out to be 632.

The compound `CC(C)CCn1c(Cn2c(=O)n(C(C)C)c3ccccc32)nc2cccc(CO)c21` registered an EC50 in data set [1] of 246 µM. The same compound gave a CC50 in data set [2] of 246 µM. The selectivity ratio in data set [3] was 1.

In data set [1], `CC(C)CCn1c(Cn2c(=O)n(C(C)C)c3ccccc32)nc2cccc(N=[N+]=[N-])c21` displayed an EC50 of 3.7 µM. In addition, in data set [2], the CC50 came out at 57.9 µM. The selectivity ratio in data set [3] was determined as 15.6.

On to `CC(C)CCn1c(Cn2c(=O)n(C(C)C)c3ccccc32)nc2cccc(CN)c21`, for which the EC50 in data set [1] stood at 192 µM. The same compound showed a CC50 in data set [2] of 11 µM. The selectivity ratio in data set [3] was 0.058.

With `COC(=O)c1cccc2nc(Cn3c(=O)n(C(C)C)c4ccccc43)n(CCC(C)C)c12`, in data set [1], a half-maximal response (EC50) required 230 µM. In addition, half-maximal cytotoxicity in data set [2] (CC50) was put at 25.3 µM. Besides, the selectivity ratio in data set [3] worked out at 0.11.

The compound `CC(C)CCn1c(Cn2c(=O)n(C(C)C)c3ccccc32)nc2ccc(C#N)cc21` came in with an EC50 in data set [1] of 0.044 µM. Further, half-maximal cytotoxicity in data set [2] (CC50) was put at 10 µM. Further, the selectivity ratio in data set [3] was determined as 228.

In data set [1], `CC(C)CCn1c(Cn2c(=O)n(C(C)C)c3ccccc32)nc2ccc(C(N)=O)cc21` gave an EC50 of 123 µM. The midpoint of cytotoxicity in data set [2], the CC50, lay at 49.9 µM. Further, the selectivity ratio in data set [3] worked out at 0.406.

`CC(C)CCn1c(Cn2c(=O)n(C(C)C)c3ccccc32)nc2cc(/C(N)=N\O)ccc21` had an EC50 in data set [1] of 0.111 µM. The CC50 in data set [2] amounted to 9.14 µM. Also, in data set [3], the selectivity ratio was found to be 82.2.

In turn, `C=C(C)n1c(=O)n(Cc2nc3ccccc3n2CCC(C)C)c2ccccc21` gave an EC50 in data set [1] of 0.004 µM. Also, the midpoint of cytotoxicity in data set [2], the CC50, lay at 24.6 µM. Moreover, the selectivity ratio in data set [3] stood at 6160.

For the compound `CC(C)CCn1c(Cn2c(=O)n(C(C)C)c3ccccc32)nc2ccc(CO)cc21`, the response in data set [1] was half-maximal at 0.134 µM (EC50). Further, the CC50 in data set [2] was 81.6 µM. For the same compound, the selectivity ratio in data set [3] came to 609.

`N=C(N)c1ccc2nc(Cc3nc4ccc(C(=N)N)cc4[nH]3)[nH]c2c1` gave a concentration for a half-maximal effect (EC50) in data set [1] of 100 µM.

The record behind these values is ChEMBL document CHEMBL1140659, “Respiratory syncytial virus fusion inhibitors. Part 5: Optimization of benzimidazole substitution patterns towards derivatives with improved activity” (Bioorg Med Chem Lett, 2007).
